Laboratory results: patent US20080009517A1, “Use of nelfinavir as a radiation sensitizer” (The Trustees of the University of Pennsylvania, priority 2005, published 2008)
Entries after “also recorded” stand apart in the source; their conditions may differ.

Experiments:
[1] = system: non-small cell lung carcinoma; conditions: randomized phase II trial; cited from earlier work
T24 = assay: Clonogenic assay, radiation sensitization, T24 cells; format: cell-based; conditions: T24, 2 Gy, nelfinavir added at least one hour prior to irradiation; mean +/- spread
Procedure: (§1) Cultures of cells in log growth phase were counted and plated in 60-mm dishes containing 4 ml of media. The cells were allowed to attach and nelfinavir was added to cultures at least one hour prior to irradiation. Cells were irradiated with a Mark I cesium irradiator (J. L. Shepherd, San Fernando, Calif.) at a dose rate of 1.6 Gy/min. Colonies were stained and counted 10-14 days after irradiation. A light box was used to assist in counting colonies. The surviving fraction was calculated by dividing the number of colonies formed by the number of cells plated times plating efficiency (Table 1). Each point value represents the mean surviving fraction from at least six replicate dishes.

REF = assay: Clonogenic assay, radiation sensitization, REF cells; format: cell-based; conditions: 2 Gy, nelfinavir added at least one hour prior to irradiation, mean +/- spread
Procedure: as §1

Akt phosphorylation = assay: Western blot of Akt phosphorylation in white blood cells of HIV patients; format: in vivo, human; conditions: HIV patients taking nelfinavir vs. HIV patients not actively using nelfinavir
From the text: As a proof of principle, it was examined whether there was down-regulation of Akt in HIV patients who are being actively treated with HPIs. Blood samples were obtained from HIV patients on courses of various combinations of drugs. WBCs were isolated and stained for Akt using a Western Blot. Patients taking nelfinavir had decreased Akt phosphorylation compared to the levels of Akt phosphorylation detected in HIV patients who were not actively using nelfinavir (FIG. 7).

A549 = assay: Clonogenic assay, radiation sensitization, A549 cells; format: cell-based; conditions: A549, 2 Gy, nelfinavir added at least one hour prior to irradiation; mean +/- spread
Procedure: as §1

MIAPACA2 = assay: Clonogenic assay, radiation sensitization, MIAPACA2 cells; format: cell-based; conditions: MIAPACA2, 2 Gy, nelfinavir added at least one hour prior to irradiation; mean +/- spread
Procedure: as §1

SQ20B = assay: Clonogenic assay, radiation sensitization, SQ20B cells; format: cell-based, human; conditions: SQ2OB cells, 5 μM nelfinavir + 2 Gy radiation; control 70%
Procedure: as §1

SQ2OB xenograft tumors = assay: In vivo to in vitro clonogenic assay in nude mice with SQ2OB tumors
Procedure: In an in vivo experiment to examine the nelfinavir-mediated radiation sensitization of tumors, tumors in animals were radiation-sensitized using nelfinavir. FIG. 5 illustrates the results of an in vivo to in vitro clonogenic assay in nude mice with SQ2OB tumors. Mice were treated with 8 Gy radiation, with and without nelfinavir at 0.6 mg/day. […] FIG. 6 illustrates the results of in vivo to in vitro clonogenic assays used to examine in vivo sensitization of tumor cells to drugs. Nelfinavir was delivered to mice at 0.6 mg/day via osmotic pump. The mice had SQ2OB xenograft tumors on hind leg. The pump was placed in mouse 2 days prior to experiment. On the day of experiment, the mouse was anesthetized and irradiated to 8 Gy. The tumor was then harvested and a cell suspension made. The cells were plated and the plating efficiency determined. The result indicted the number of cells that were viable and able to reproduce by forming colonies in each individual group (plating efficiency).

[2] = system: Akt phosphorylation at Ser 473; assay: Western blot analysis of Akt phosphorylation in SQ2OB cells; format: cell-based, human
From the text: Using Western blot analysis, a human head-and-neck cancer cell line, SQ2OB, containing a constitutively-active EGFR receptor and thus, increased signaling through PI3K, was examined for Akt phosphorylation.

Row | SMILES | radiographic response rate [1] | nelfinavir SF2 (T24) | nelfinavir SF2 (REF) | Akt phosphorylation in white blood cells (Akt phosphorylation) | nelfinavir SF2 (A549) | nelfinavir SF2 (MIAPACA2) | surviving fraction after 2 Gy (SF2) (SQ20B) | plating efficiency of tumor cells derived from the mice (SQ2OB xenograft tumors; nelfinavir 0.6 mg/day + 8 Gy radiation) | plating efficiency of tumor cells derived from the mice (SQ2OB xenograft tumors; nelfinavir alone 0.6 mg/day, no radiation) | Akt phosphorylation at Ser 473 ([2]; 5 μM nelfinavir) | Akt phosphorylation at Ser 473 ([2]; 10 μM nelfinavir)
1 | COc1cc2ncnc(Nc3ccc(F)c(Cl)c3)c2cc1OCCCN1CCOCC1 [Iressa, gefitinib] | ~10% |  |  |  |  |  |  |  |  |  | 
2 | Cc1c(O)cccc1C(=O)N[C@@H](CSc1ccccc1)[C@H](O)CN1C[C@H]2CCCC[C@H]2C[C@H]1C(=O)NC(C)(C)C [nelfinavir] |  | 0.452 +/− 0.023 | 0.397 +/− 0.054 | decreased | 0.410 +/− 0.062 | 0.526 +/− 0.040 | 40% | synergistically decreased; also recorded: significant increase in cell kill | did not result in a change; also recorded: no toxicity | down-regulation | abolished
